Drawing on ChEMBL document CHEMBL3817759, “Novel drug design for Chagas disease via targeting Trypanosoma cruzi tubulin: Homology modeling and binding pocket prediction on Trypanosoma cruzi tubulin polymerization inhibition by naphthoquinone derivatives” (Bioorg Med Chem, 2016), this text covers IC50 for six molecules.

A value given as a limit tells only on which side of the number the result lay.

As usually defined, the IC50 is the concentration that gives 50% inhibition.

The nature of test [1]: Inhibition of Trypanosoma cruzi tubulin polymerization incubated at room temperature for 15 mins followed by 5 mins at 4 degC in presence of GTP by photometric method.
Another test relates to Trypanosoma cruzi. The test is described as follows: Antitrypanosomal activity against epimastigote stage of Trypanosoma cruzi Tulahuen CL98 after 48 hrs by hemocytometry. The format is functional, organism-based. Conditions: Tulahuen CL98, 48 h.

As to `O=C1C(Cl)=C(N2C(=O)c3ccccc3C2=O)C(=O)c2ccccc21`, the IC50 amounted to 12 µM in test [1] and 4.83 µM in the test on Trypanosoma cruzi.

In the case of `O=C1C(Cl)=C(N(C(=O)c2cccc(Cl)c2)C(=O)c2cccc(Cl)c2)C(=O)c2ccccc21`, the 50% inhibitory concentration (IC50) in test [1] was 8 µM; in the test on Trypanosoma cruzi, 2.23 µM.

In the case of `O=C1C(Cl)=C(N2C(=O)CCC2=O)C(=O)c2ccccc21`, the IC50 was determined as 6 µM in test [1] and 2.77 µM in the test with Trypanosoma cruzi.

In the case of `CCCC(=O)N(C(=O)CCC)C1=C(Cl)C(=O)c2ccccc2C1=O`, the IC50 came out at 3.2 µM in test [1] and 0.7 µM in the test with Trypanosoma cruzi.

Consider `CC1CS(=O)(=O)CCN1/N=C/c1ccc([N+](=O)[O-])o1` (stereo unspecified) [NIFURTIMOX], for which the midpoint of inhibition in the test on Trypanosoma cruzi, the IC50, lay at 10.7 µM.

With `O=C1C(Cl)=C(N(C(=O)CCl)C(=O)CCl)C(=O)c2ccccc21`, the IC50 is more than 40 µM in test [1] and 6.1 µM with Trypanosoma cruzi.
